From patent US20060008574A1, “Galactosyl isomalt, method for production and use thereof” (priority 2002, published 2006)

What was measured:
[1] = tested on: pancreatin enzyme (Sigma); experiment: Stability with respect to pancreatic enzymes; assay type: in vitro ADME; conditions: 1% solution, 0.2% pancreatin, pH 7.0, 210 min at 37° C.
Experimental: The pancreatic secretion contains a large number of hydrolases, including carbohydrate-degrading enzymes like α-amylase, which breaks down α-1,4-glucans (starch, glycogen) preferably to maltose and maltooligosaccharides. The test of the stability of saccharides with respect to pancreatic enzymes is carried out as follows.
3.0 mL of a carbohydrate solution (solution 2 to solution 6) is mixed with 0.1 mL of the enzyme solution (solution 7) per batch:
Solution 1: 20 mmol/L Na phosphate buffer, pH 7.0, with 6 mmol/L NaCl
Solution 2: 1% solution of β-1,4-galactosyl isomalt mixture in accordance with the invention, prepared according to Example 2 and Example 4, in solution 1
Solution 3: 1% solution of β-1,3-galactosyl isomalt mixture in accordance with the invention, prepared according to Example 1 and Example 4, in solution 1
Solution 4: 1% solution of β-1,6-galactosyl isomalt mixture in accordance with the invention; prepared according to Example 3 and Example 4, in solution 1
Solution 6: 1% starch solution (soluble starch, according to Zulkowski), in solution 1
Solution 7: 0.2% pancreatin enzyme (Sigma), dissolved in solution 1
After 210 min incubation in a thermomixer (interval shaking) at 37° C., the reaction is stopped by heating to 95° C. for 15 min and the samples are analyzed by HPAEC. The starch-containing sample (solution6+solution 7) is completely hydrolyzed before the HPAEC analysis by heating for 3 h in 1 mol/L hydrochloric acid at 95° C., and the glucose resulting from this is determined in order to calculate the starch content of the sample.

[2] = tested on: glucoamylase/maltase (GM complex); experiment: Stability with respect to small intestine α-glucosidases: glucoamylase/maltase; conditions: 120 min incubation
Experimental: Solution 1: 0.1 mol/L triethanolamine (TEA) buffer, pH 7.0
Solution 6: 1% solution of maltose in solution 1
Solution 7: 1% solution of sucrose in solution 1
Solution 8: 1% solution of isomalt in solution 1
Solution 9: 1% solution of isomaltulose in solution 1
Solution 11: Glucoamylase/maltase enzyme complex in solution 1
i) 0.7 unit of the enzyme complex saccharase/isomaltase (solution 10) or glucoamylase/maltase (solution 11) was added in each case to 1.0 mL of a carbohydrate solution heated to 37° C. (solution 2 to solution 8), mixed and incubated at 37° C.
ii) For incubation under more severe conditions, 16 units of the enzyme complex saccharase/isomaltase or 13 units of the enzyme complex glucoamylase/maltase were used. The reaction was stopped after 2 h by heating to 95° C. for 15 min. The resulting monosaccharides and the undegraded saccharides of the relevant batches were quantitatively determined by HPAEC.

OCC1O[C@H](OC[C@@H](O)[C@@H](O)[C@H](O)C(O)CO)C(O)C(O[C@@H]2OC(CO)[C@H](O)C(O)C2O)[C@@H]1O (mixture of isomers) [β-1,3-Galactosyl isomalt, β-D-galactosyl-(1→3)-α-D-glucosyl-(1→6)-D-sorbitol(β-1,3-galactosyl-1,6-GPS) and β-D-galactosyl-(1→3)-α-D-glucosyl-(1→1)-D-mannitol(β-1,3-galactosyl-1,1-GPM)]
Decomposition rate [%] [1]: <1%
Hydrolysis rate [%] ([2]; More stringent (13 units)): 0%
Hydrolysis rate [%] ([2]; Standard (0.7 unit), 37° C., pH 7.0): 0%
